Reference: patent US6328992A, “Cannabinoid patch and method for cannabis transdermal delivery” (priority 2000, dated 2001)

How the values were obtained:
[1] = from patch of Example A; human cadaver epidermis, 37 degree Celsius, seven days
[2] = prior experimentation; cited from earlier work
[3] = solubility of THC in aqueous and ionic solutions; type: physicochemical
Excerpt: Furthermore, THC is insoluble with many solutions, including aqueous and ionically charged solutions. An application of an ionic aqueous solution to a porous material will hinder the diffusion rate of THC through the material and decrease flux of cannabis. Therefore, an appropriate combination of porous THC absorbing material, combined with a solution that is insoluble with THC, can form a suitable rate control means. An example of such a rate controlling membrane includes mixing salt water with a porous rubber membrane that covers the cavity. The thickness of the porous rubber membrane, the concentration of the salt water, and the amount of available cannabis in the cavity are optimized experimentally to create a desired flux of THC to the patient's skin. Evaporation of necessary fluids may be prevented by a protective backing layer.

Structure (SMILES) | individual cannabinoid flux [1] | diffusion through porous materials such as rubber and plastic [2] | solubility with aqueous and ionically charged solutions [3]
C=C(C)[C@@H]1CCC(C)=C[C@H]1c1c(O)cc(CCCCC)cc1O [CBD, cannabidiol] | 5.25 micrograms per square centimeter per hour |  | 
CCCCCc1cc(O)c2c(c1)OC(C)(C)c1ccc(C)cc1-2 [CBN, cannabinol] | 4.8 micrograms per square centimeter per hour |  | 
CCCCCc1cc(O)c2c(c1)OC(C)(C)[C@@H]1CCC(C)=C[C@@H]21 [THC, tetrahydrocannabinol] |  | diffuse rapidly | insoluble
CCCCCc1cc(O)c2c(c1)OC(C)(C)C1CC=C(C)CC21 (stereo not drawn) [delta 8 THC] | 0.45 micrograms per square centimeter per hour |  | 
CCCCCc1cc(O)c2c(c1)OC(C)(C)C1CCC(C)=CC21 (stereo not drawn) [delta 9 THC] | 4.5 micrograms per square centimeter per hour |  | 
